Results: article PMC10846223, “Substrate specificity and ecological significance of PstS homologs in phosphorus uptake in marine Synechococcus sp. WH8102” (Microbiology Spectrum, 2024)

Columns and labels:
Experiment in all cases: biochemical
[1] = molecular target: T1, PstS1b (Parasynechococcus marenigrum, UniProt Q7U592)
T1 construct: gene SYNW1815
T1 sequence (Q7U592 26-325): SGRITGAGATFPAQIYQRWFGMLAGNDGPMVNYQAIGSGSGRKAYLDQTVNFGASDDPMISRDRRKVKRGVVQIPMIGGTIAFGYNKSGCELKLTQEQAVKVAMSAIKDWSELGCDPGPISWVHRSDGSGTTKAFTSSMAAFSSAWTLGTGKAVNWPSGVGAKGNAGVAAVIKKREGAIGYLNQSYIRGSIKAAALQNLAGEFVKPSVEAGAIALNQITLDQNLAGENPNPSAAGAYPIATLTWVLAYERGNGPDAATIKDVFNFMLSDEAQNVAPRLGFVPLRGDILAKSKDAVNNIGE

[2] = molecular target: T2, PstS1a (Parasynechococcus marenigrum, UniProt Q7U7G6)
T2 construct: gene SYNW1018
T2 sequence (Q7U7G6 25-324): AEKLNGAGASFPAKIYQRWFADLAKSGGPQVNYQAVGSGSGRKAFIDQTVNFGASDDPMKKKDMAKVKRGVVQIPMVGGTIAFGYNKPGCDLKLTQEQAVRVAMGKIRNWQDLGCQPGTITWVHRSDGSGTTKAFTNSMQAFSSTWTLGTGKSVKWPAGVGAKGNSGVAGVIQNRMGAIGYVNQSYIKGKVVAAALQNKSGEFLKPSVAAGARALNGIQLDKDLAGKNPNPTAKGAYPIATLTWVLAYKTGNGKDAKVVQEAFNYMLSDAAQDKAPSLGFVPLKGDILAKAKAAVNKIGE

[3] = molecular target: T3, PstS2 (Parasynechococcus marenigrum, UniProt Q7U3C5)
T3 construct: gene SYNW2507
T3 sequence (Q7U3C5 24-336): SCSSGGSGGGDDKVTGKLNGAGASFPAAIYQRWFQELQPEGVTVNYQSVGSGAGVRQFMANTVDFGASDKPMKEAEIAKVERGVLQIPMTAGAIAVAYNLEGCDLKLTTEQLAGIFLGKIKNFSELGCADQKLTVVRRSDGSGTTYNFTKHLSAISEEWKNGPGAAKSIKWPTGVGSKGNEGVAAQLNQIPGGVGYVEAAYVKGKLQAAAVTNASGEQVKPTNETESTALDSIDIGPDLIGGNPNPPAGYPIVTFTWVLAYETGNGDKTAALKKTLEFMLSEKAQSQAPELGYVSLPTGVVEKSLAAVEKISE

- Kd [1]: 440 nM
- Kd [2]: 3.3 µM
- Kd [3]: 4.3 µM
Compound: O=P(O)(O)O [phosphate]
